Source: patent publication US6841577B2, “Pesticidal activity of plant essential oils and their constituents” (Ecosmart Technologies, Inc., priority 1999, dated 2005)

Tests used:
[1] = tested on: octopamine receptor sites; assay: 3H-OA binding to ventral nerve cord / synaptosomal membrane protein; parameters: species or system American cockroach (Periplaneta americana); settings: for cpm 3H-OA/500 μg protein: Table 1, solvent control 1280 ± 259
Procedure, shortened: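 Ventral nerve cord membrane protein preincubated 20 min with test chemicals (in acetone), with or without 50 ng unlabelled OA. ^3H-OA (100,000 cpm/sample) then bound 30 min at 24 °C, followed by GF/C filtration and scintillation counting. Specific binding taken as total minus binding with unlabelled OA; mean ± SD of 5 assays.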

[2] = tested on: American cockroach; assay: Lethal effect of injected test chemicals; assay type: in vivo; settings: dead/10
Procedure: Further studies were conducted to determine the LD 50 of purified naturally occurring plant essential oils and/or their constituents. […] Ten roaches per dose were used. Another group of ten roaches received the same volume of vehicle only (0.5 μl) and used as a control group. Mortality was recorded 24, 48, and 72 hours after exposure.

[3] = tested on: heart of American cockroach (octopamine receptors); assay: Heartbeat after application to thoracic segment; assay type: in vivo; settings: mean ±SD of three roaches
Procedure: To further establish the effect of the purified naturally occurring plant essential oils and/or their constituents on the American cockroach, a 300 μg amount of the chemical was applied to the thoracic segment of an intact and alive American cockroach. The heart beats/30 seconds was measured. The heart of the cockroach is known to have a high concentration of octopamine receptors and the heart beat is considered an important measurement to indicate the effect of the applied chemicals to the octopamine receptors.

[4] = tested on: American cockroach; assay: Cross walk jar test on pre-treated surface; assay type: in vivo; settings: Periplaneta americana, 24 h
Procedure: In the test, a known amount of the test material was dissolved in a known volume of acetone and applied to small jars and all inner bottom surfaces were covered. The bottom surface of each jar is approximately 250 cm^2. One hour after the acetone had completely evaporated, five American cockroaches were introduced to each jar. Control jars were treated exactly as above but with the known amount of acetone only.
The results of the “cross walk” jar tests are in Table 8 in which the “4-blend” was dispersed as an aerosol and a dust in the jar.
In this test, the acetone solution of the test material was placed in the jar and the roach inserted into the jar after the acetone had evaporated.
Mortality was measured 24 hours after exposure.
The “4-blend” and the individual constituents of the “4-blend” were tested using 10 cockroaches for each “cross walk” treatment. In addition, pyrethrins were tested separately and mixed with the various components.
A concentration of 100 mg/jar was used for each individual alone. In the co-treatment experiment without pyrethrins, 20 mg/jar for each chemical was used. In the cotreatment experiment with pyrethrins, 20 mg/jar for the naturally occurring plant material was used. Pyrethrins was used at 2 mg/jar. […] It was noted above that the mortality is dependent upon concentration. […] Some synergism is found between pyrethrins and either α-terpineol or benzyl alcohol.

[5] = tested on: 2nd instar green peach aphid nymphs; assay: Cabbage leaf disc bioassay; assay type: in vivo
Procedure: A bioassay similar to that for S. litura larvae was used for additional larvae. Cabbage leaf discs were dipped in emulsified aqueous solutions, diluted 1:200 in water, on which 2nd instar green peach aphid nymphs were placed. For each treatment there was 10 aphids per disc with 5 replicates; each experiment was replicated in time (successive days) from 3-5 times. After 24 hours, aphids were reported as being (1) on the leaf disc and feeding; (2) alive, but walking off the disc; or (3) dead. In the field, aphids which cease feeding and abandon a host plant are very unlikely to survive.

[6] = tested on: American cockroaches; assay: Cross walk testing with eugenol in acetone or Isopar M; assay type: in vivo, American cockroach; parameters: KD (knockdown), of 5: unit not given beside the values
Procedure: Additional “cross walk” testing was conducted with eugenol. Table 18 provides data for 5% (by volume) eugenol in acetone and Table 19 provides data for 1% eugenol in acetone wherein five (5) American cockroaches were placed in the screened jars after the acetone had evaporated. IM=immobilized; KD=knockdown; D=dead; L=live (no effect).
Table 20 provides data for 5% (by volume) eugenol in 95% Isopar M and Table 21 provides data for 1% (by volume) eugenol in 99% Isopar M. Isopar M is an isoparaffinic hydrocarbon sold by Exxon Corporation.

[7] = 1% eugenol in 99% Isopar M, 2 min
[8] = 1% eugenol in 99% Isopar M, 5 min
[9] = 1% eugenol in 99% Isopar M, 45 min
[10] = 5% eugenol in 95% Isopar M, 2 min
[11] = 5% eugenol in 95% Isopar M, 5 min

SMILES: C=CCc1ccc(O)c(OC)c1 [eugenol]
- cpm 3H-OA/500 μg protein ([1]; 300 ng test chemical): 818 ± 93 cpm 3H-OA/500 μg protein
- cpm 3H-OA/500 μg protein ([1]; 500 ng test chemical): 730 ± 59 cpm 3H-OA/500 μg protein
- cpm 3H-OA/500 μg protein ([1]; 700 ng test chemical): 453 ± 39 cpm 3H-OA/500 μg protein
- cpm 3H-OA/500 μg protein ([1]; 1000 ng test chemical): 226 ± 15 cpm 3H-OA/500 μg protein
- cpm 3H-OA/500 μg protein ([1]; 1500 ng test chemical): 200 ± 17 cpm 3H-OA/500 μg protein
- classification with respect to octopamine receptor sites (OAR) ([1]; based on the binding data of Tables 1-3): high OAR antagonists
- Mortality 24 hr after treatment ([2]; 300 μg): 2/10
- Mortality 24 hr after treatment ([2]; 400 μg): 3/10
- Mortality ([2]; 500 μg/roach injected into thoracic and abdominal segments, 24 hr.): 6/10
- Mortality ([2]; 500 μg/roach injected, 48 hr.): 6/10
- Mortality ([2]; 500 μg/roach injected, 72 hr., control 1/10): 6/10
- Mortality 24 hr after treatment ([2]; 500 μg): 5/10
- Mortality 24 hr after treatment ([2]; 600 μg): 8/10
- Mortality 24 hr after treatment ([2]; 700 μg): 9/10
- Heart beat/30 sec 30 min after treatment ([3]; 300 μg applied to thoracic segment): 24 ± 1 beat/30 sec
- Heart beat/30 sec before treatment ([3]; baseline of the same roaches): 55 ± 3 beat/30 sec
- mortality at 100 mg [4]: 100%
- activity on green peach aphid nymphs, in words ([5]; 1:200 dilution): somewhat more active
- Percentage of aphids Walking (off disc) ([5]; diluted 1:200 in water, after 24 hours, n = 250, Table 16, control 23.4): 38.3%
- Percentage of aphids Dead ([5]; diluted 1:200 in water, after 24 hours, n = 250, Table 16, control 24.8): 44.3%
- Percentage of aphids Feeding ([5]; diluted 1:200 in water, after 24 hours, n = 250, Table 16, control 51.7): 17.7%
- D (dead), of 5 [6, 7]: 2/5
- IM (immobilized), of 5 [6, 7]: 1/5
- KD (knockdown), of 5 [6, 7]: 1/5
- D (dead), of 5 [6, 8]: 3/5
- IM (immobilized), of 5 [6, 8]: 1/5
- IM (immobilized), of 5 ([6]; 1% eugenol in 99% Isopar M, 15 min): 2/5 IM
- IM (immobilized), of 5 ([6]; 1% eugenol in 99% Isopar M, 30 min): 2/5 IM
- D (dead), of 5 [6, 9]: 4/5
- IM (immobilized), of 5 [6, 9]: 1/5
- IM (immobilized), of 5 ([6]; 1% eugenol in 99% Isopar M, 1 hr.): 1/5 IM
- D (dead), of 5 ([6]; 1% eugenol in 99% Isopar M, 1.5 hr.): 5/5 D
- L (live, no effect), of 5 ([6]; 1% eugenol in acetone, 2 min): 5/5 L
- L (live, no effect), of 5 ([6]; 1% eugenol in acetone, 30 min): 5/5 L
- IM (immobilized), of 5 ([6]; 1% eugenol in acetone, 45 min): 3/5 IM
- IM (immobilized), of 5 ([6]; 1% eugenol in acetone, 1 hr.): 3/5
- KD (knockdown), of 5 ([6]; 1% eugenol in acetone, 1 hr.): 1/5
- IM (immobilized), of 5 ([6]; 1% eugenol in acetone, 1.5 hr.): 3/5
- KD (knockdown), of 5 ([6]; 1% eugenol in acetone, 1.5 hr.): 1/5
- IM (immobilized), of 5 ([6]; 1% eugenol in acetone, 2 hr.): 3/5
- KD (knockdown), of 5 ([6]; 1% eugenol in acetone, 2 hr.): 1/5
- IM (immobilized), of 5 ([6]; 1% eugenol in acetone, 4 hr.): 3/5
- KD (knockdown), of 5 ([6]; 1% eugenol in acetone, 4 hr.): 1/5
- IM (immobilized), of 5 ([6]; 1% eugenol in acetone, 24 hr., (KD/IM recover)): 2/5 IM (KD/IM recover)
- D (dead), of 5 [6, 10]: 2/5
- IM (immobilized), of 5 [6, 10]: 1/5
- D (dead), of 5 [6, 11]: 4/5
- IM (immobilized), of 5 [6, 11]: 1/5
- D (dead), of 5 ([6]; 5% eugenol in 95% Isopar M, 10 min): 5/5 D
- IM (immobilized), of 5 ([6]; 5% eugenol in acetone, 2 min): 1/5 IM
- IM (immobilized), of 5 ([6]; 5% eugenol in acetone, 5 min): 1/5 IM
- IM (immobilized), of 5 ([6]; 5% eugenol in acetone, 15 min): 3/5 IM
- IM (immobilized), of 5 ([6]; 5% eugenol in acetone, 30 min): 3/5
- KD (knockdown), of 5 ([6]; 5% eugenol in acetone, 30 min): 1/5
- IM (immobilized), of 5 ([6]; 5% eugenol in acetone, 45 min): 3/5
- KD (knockdown), of 5 ([6]; 5% eugenol in acetone, 45 min): 1/5
- IM (immobilized), of 5 ([6]; 5% eugenol in acetone, 1 hr.): 4/5
- KD (knockdown), of 5 ([6]; 5% eugenol in acetone, 1 hr.): 1/5
- IM (immobilized), of 5 ([6]; 5% eugenol in acetone, 1.5 hr.): 4/5
- KD (knockdown), of 5 ([6]; 5% eugenol in acetone, 1.5 hr.): 1/5
- IM (immobilized), of 5 ([6]; 5% eugenol in acetone, 2 hr.): 4/5
- KD (knockdown), of 5 ([6]; 5% eugenol in acetone, 2 hr.): 1/5
- D (dead), of 5 ([6]; 5% eugenol in acetone, 4 hr.): 4/5
- KD (knockdown), of 5 ([6]; 5% eugenol in acetone, 4 hr.): 1/5
- D (dead), of 5 ([6]; 5% eugenol in acetone, 24 hr.): 5/5 D
- effectiveness as a pesticide for American cockroaches, in words ([6]; 5% eugenol, in both modes of use (acetone, Isopar M)): highly effective
